Reference: patent US8852591B2, “Combination of BLyS and/or APRIL inhibition and immunosuppressants for treatment of autoimmune disease” (Zymogenetics, Inc., priority 2007, dated 2014)

Key:
[1] = system: total IgA serum levels; test: Repeat and extension of atacicept and MMF combination experiment, total IgA by ELISA; format: in vivo, mice; conditions: for Numeric mean IgA: dosing until day 91
Method: (§1) Using similar procedures to those described in Example 3 and dosing until day 91, the results of Example 3 were replicated and extended in time to days 35, 91, 126, and 182.
(§2) Group 1 received both the vehicle for ATACICEPT and the vehicle for CellCept at the same treatment frequency as the treated groups. Group 2 was treated with only ATACICEPT
(§3) Group 3 received only CellCept. Group 4 received CellCept oral gavage followed by ATACICEPT s.c. injection within a period of approximately 30 minutes. The day of the first treatment was considered day 1 of the study. Throughout the study period clinical observations, hematological and blood chemistry tests, toxicokinetics and additional investigations were carried out.
(§4) Additional satellite groups of animals were used for total immunoglobulin determinations and antibody determination. They were treated and weighed according to the same procedures as the main study.
(§5) Blood samples were collected from 3 animals/sex/group (in progressive numerical order) for the determination of IgG, IgM and IgA serum levels at the following times:
(§6) from animals of groups 9, 10, 11 and 12:
(§7) • on day 34 of the 5-week treatment period • on day 90 of the 13-week treatment period • on day 34 of the 5-week recovery period • on day 90 of the 13-week recovery period
(§8) The blood (at least 0.8-1 mL) was collected at sacrifice from the abdominal aorta of mice after they have been completely anaesthetized with diethyl ether.
(§9) Samples were collected in tubes without any anticoagulant and allowed to clot for about 1 hour at room temperature. The clot were spun down by centrifugation at 3000 rpm at +4° C. for 15 minutes. Blood cells were discarded and the serum banked in 100 μL aliquots (four aliquots for every single analysis) and stored at −80° C. until analysis. Total IgG, IgM and IgA levels were determined by validated ELISA methods.

[2] = system: total serum IgG; test: 28-day atacicept and MMF co-administration study, total serum IgG by ELISA; format: in vivo, CD-1 mice
Method: (§10) Atacicept and MMF (CellCept) co-administration was tested in a 28-day study in CD-1 mice. One hundred fifty animals were distributed among four treatment groups. Group 1 received vehicle control articles used for both atacicept and MMF using the same route and regimen used for each test article. Group 2 received MMF (351 mg/kg) via daily oral gavage. Group 3 received atacicept (20 mg/kg) three times weekly via subcutaneous injection. Group 4 received atacicept (20 mg/kg, 3×/week, SC) and MMF (351 mg/kg, daily, oral), typically administered within 30 minutes of each other. […]
(§11) Animals were sacrificed at baseline (Day-1) and Days 14, 28 (last day of treatment), 42, 56, and 112. […] Body weights were measured and recorded on Day-1 of the study and weekly thereafter, and prior to sacrifice. […] Total serum IgG, IgM, and IgA were measured using a […] necropsies were conducted on sacrificed animals for evaluation of organ weight changes, gross pathology, and histopathology.
(§12) Total IgG levels were evaluated using a mouse IgG ELISA quantitation kit (Catalog #E90-131, Bethyl Laboratories, Montgomery, Tex.), combined with the ELISA Starter Accessory Package (Catalog #E101, Bethyl Laboratories, Montgomery, Tex.). […] The color reaction was stopped with addition of 2 M H2SO4, and the resulting absorbance (OD-450) was measured on a Spectramax 190 microplate reader. […]

[3] = system: total serum IgA; test: 28-day atacicept and MMF co-administration study, total serum IgA by ELISA; format: in vivo, CD-1 mice
Method: as §10, §11
as §12, with “IgA” for “IgG”, “#E90-103,” for “#E90-131,”

[4] = system: total IgM serum levels; test: Repeat and extension of atacicept and MMF combination experiment, total IgM by ELISA; format: in vivo, mice; conditions: for Numeric mean IgM: dosing until day 91
Method: as §1, §2, §3, §4, §5, §6, §7, §8, §9

[5] = system: total serum IgM; test: 28-day atacicept and MMF co-administration study, total serum IgM by ELISA; format: in vivo, CD-1 mice
Method: as §10, §11
as §12, with “IgM” for “IgG”, “#E90-101,” for “#E90-131,”

[6] = system: total IgG serum levels; test: Repeat and extension of atacicept and MMF combination experiment, total IgG by ELISA; format: in vivo, mice; conditions: for Numeric mean IgG: dosing until day 91, atacicept 20 mg/kg s.c. 3/week, MMF 350 mg/kg/day oral
Method: as §1, §2, §3, §4, §5, §6, §7, §8, §9

[7] = Day 28 (last day of treatment), MMF 351 mg/kg daily oral, atacicept 20 mg/kg 3x/week SC
[8] = Day 28, positive = reduction versus vehicle

## COc1c(C)c2c(c(O)c1C/C=C(\C)CCC(=O)OCCN1CCOCC1)C(=O)OC2 [MMF, mycophenolate mofetil]
[1]; Sample Day 91
  Difference from Vehicle, mean IgA (vehicle minus treatment): -840.19 µg/mL
[1]; Sample Day 91, atacicept 20 mg/kg s.c. 3/week, MMF 350 mg/kg/day oral
  Numeric mean IgA: 1764.55 µg/mL
[1]; Sample Day 126
  Difference from Vehicle, mean IgA (vehicle minus treatment): -353.57 µg/mL
[1]; Sample Day 126 (recovery period)
  Numeric mean IgA: 1467.05 µg/mL
[2]; [7]
  Numeric mean IgG: 185 µg/mL
[2]; [8]
  Difference from Vehicle, mean IgG (vehicle minus treatment): -6 µg/mL
[3]; [7]
  Numeric mean IgA: 506 µg/mL
[3]; [8]
  Difference from Vehicle, mean IgA (vehicle minus treatment): -8 µg/mL
[4]; Sample Day 35
  Difference from Vehicle, mean IgM (vehicle minus treatment): -35.64 µg/mL
[4]; Sample Day 35, atacicept 20 mg/kg s.c. 3/week, MMF 350 mg/kg/day oral
  Numeric mean IgM: 141.34 µg/mL
[4]; Sample Day 182
  Difference from Vehicle, mean IgM (vehicle minus treatment): 20.18 µg/mL
[4]; Sample Day 182 (recovery period)
  Numeric mean IgM: 53.77 µg/mL
[5]; [7]
  Numeric mean IgM: 317 µg/mL
[5]; [8]
  Difference from Vehicle, mean IgM (vehicle minus treatment): -79 µg/mL
[6]; Sample Day 35
  Difference from Vehicle, mean IgG (vehicle minus treatment): -420.43 µg/mL
  Numeric mean IgG: 940.13 µg/mL
[6]; Sample Day 91
  Difference from Vehicle, mean IgG (vehicle minus treatment): -495.86 µg/mL
  Numeric mean IgG: 1192.87 µg/mL
